Holding throughout (format): cell-based
The target in assay [1] is T1, M1 muscarinic receptor (ganglion) (Rattus norvegicus, UniProt P08482).
T1 construct: agonist activity against muscarinic receptors in the ganglion, heart and ileum; from tissue
T1 sequence (P08482 1-460): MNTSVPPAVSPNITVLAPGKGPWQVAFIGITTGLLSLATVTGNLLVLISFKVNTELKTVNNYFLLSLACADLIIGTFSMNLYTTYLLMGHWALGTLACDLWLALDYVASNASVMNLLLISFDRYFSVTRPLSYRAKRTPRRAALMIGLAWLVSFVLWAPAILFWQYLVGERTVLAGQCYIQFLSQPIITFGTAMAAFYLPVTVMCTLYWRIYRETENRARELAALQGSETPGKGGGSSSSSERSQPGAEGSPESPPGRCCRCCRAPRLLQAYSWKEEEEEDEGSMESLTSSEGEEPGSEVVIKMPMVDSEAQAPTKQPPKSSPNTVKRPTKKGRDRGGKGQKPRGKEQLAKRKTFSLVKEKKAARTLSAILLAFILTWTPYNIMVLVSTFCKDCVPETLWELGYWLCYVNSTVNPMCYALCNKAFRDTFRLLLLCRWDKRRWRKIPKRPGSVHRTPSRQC
Description: Agonist activity against muscarinic receptors in the ganglion (M1 agonist activity). To be noted: for EC50: ganglion. The source says:
(§1) European Patent Application No. 89200147 (Publication No. 327155) discloses a class of pyrazines, pyridazines or pyrimidines, and salts and prodrugs thereof, substituted on one of the ring carbon atoms thereof with a non-aromatic azacyclic or azabicyclic ring system; and independently substituted on each of the other ring carbon atoms with a substituent of low lipophilicity or a hydrocarbon substituent, which compounds stimulate cholinergic transmission.
(§2) The following results are obtained in pharmacological assays to allow agonist activity against muscarinic receptors in the ganglion, heart and ileum.

Assay [2] concerns the target T2, M2 muscarinic receptor (heart) (Cavia porcellus, UniProt H0VRN8).
T2 construct: agonist activity against muscarinic receptors in the ganglion, heart and ileum; from tissue
T2 sequence (H0VRN8 1-466): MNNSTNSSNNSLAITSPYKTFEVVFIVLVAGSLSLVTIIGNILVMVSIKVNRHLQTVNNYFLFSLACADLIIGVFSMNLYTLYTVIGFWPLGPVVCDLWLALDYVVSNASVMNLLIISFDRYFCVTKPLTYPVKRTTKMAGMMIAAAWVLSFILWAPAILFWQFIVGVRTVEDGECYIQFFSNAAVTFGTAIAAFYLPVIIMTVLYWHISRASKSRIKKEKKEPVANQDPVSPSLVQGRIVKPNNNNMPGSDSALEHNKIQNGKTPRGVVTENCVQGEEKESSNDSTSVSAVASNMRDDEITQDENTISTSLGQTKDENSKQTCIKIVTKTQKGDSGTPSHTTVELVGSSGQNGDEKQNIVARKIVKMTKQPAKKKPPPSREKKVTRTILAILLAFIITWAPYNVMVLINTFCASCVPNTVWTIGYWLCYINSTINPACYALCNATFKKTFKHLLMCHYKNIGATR
Kind of assay: Pharmacological assay on muscarinic receptors in the heart (M2 antagonist activity). The conditions noted are these: read-out: Heart (pA2) (converted).
From the text: as §1, §2

For assay [3], the target named is T3, M3 muscarinic receptor (ileum) (Cavia porcellus, UniProt H0W1Z3).
T3 construct: agonist activity against muscarinic receptors in the ganglion, heart and ileum; from tissue; host or cells: ileum
Description: Agonist activity against muscarinic receptors in the ileum (M3 agonist activity).
From the text: as §1, §2

T3 sequence (H0W1Z3 1-590): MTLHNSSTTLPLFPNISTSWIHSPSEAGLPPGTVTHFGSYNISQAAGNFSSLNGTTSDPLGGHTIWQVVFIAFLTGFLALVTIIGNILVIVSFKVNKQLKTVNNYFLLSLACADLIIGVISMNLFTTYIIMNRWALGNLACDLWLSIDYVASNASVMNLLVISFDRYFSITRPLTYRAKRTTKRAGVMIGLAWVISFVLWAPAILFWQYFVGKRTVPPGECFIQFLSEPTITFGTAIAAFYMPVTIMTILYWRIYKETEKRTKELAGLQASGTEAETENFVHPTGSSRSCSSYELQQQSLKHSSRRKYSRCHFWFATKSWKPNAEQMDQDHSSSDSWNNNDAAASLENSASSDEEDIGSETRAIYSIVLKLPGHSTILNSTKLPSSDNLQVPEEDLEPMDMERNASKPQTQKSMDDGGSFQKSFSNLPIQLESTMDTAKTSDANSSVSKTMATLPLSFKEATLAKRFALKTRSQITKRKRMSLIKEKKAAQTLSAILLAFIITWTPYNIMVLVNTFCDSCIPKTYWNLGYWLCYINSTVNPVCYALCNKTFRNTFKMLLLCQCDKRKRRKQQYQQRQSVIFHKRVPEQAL

What is called EC50 is the concentration that produces a half-maximal response. Low values mean an effect from little substance, high ones a need for much substance. In the case of `Clc1cncc(C2CN3CCC2CC3)n1` (racemic) [racemate, 3-[2-(6-chloropyrazin)yl]-1-azabicyclo[2.2.2]octane], the EC50 came out at 100 nM in assay [1] and 30 nM in assay [3]. The Kb in assay [2] was 79.4 nM.

For the molecule `Clc1cncc([C@H]2CN3CCC2CC3)n1` [(1), (R)-3-[2-(6-chloropyrazin)yl]-1-azabicyclo[2.2.2]octane], in assay [1] (M1 receptor, versus (S)-enantiomer), the “potency at the M1 receptor relative to the corresponding (S)-enantiomer” value is recorded as “four times”. The “potency at the M1 receptor relative to the corresponding racemate” value in assay [1] (M1 receptor, versus racemate) was “twice the potency”. In addition, the half-maximal effective concentration (EC50) is 50 nM in assay [1] and 40 nM in assay [3]. For the same molecule, the Kb in assay [2] was 63.1 nM.

Take `Clc1cncc([C@@H]2CN3CCC2CC3)n1` [(S) isomer]: the values for the EC50 in assay [1] and in assay [3] were 200 nM and 600 nM, respectively. Also, in assay [2], the Kb is 126 nM.
